In patent publication US7745492B2, “Carboxamido opioid compounds” (Janssen Pharmaceutical, priority 2004, dated 2010):

Legend:
[1] = Metabolic stability in mouse liver microsomes; format: in vitro ADME; details: 10 min incubation
Method: (§1) The metabolic stability of Compound 3 was investigated using several approaches. The compound was incubated with liver microsomes from mouse, rat, dog and human and the percent of compound remaining after ten min quantified. The compound was metabolically robust in all species tested.

[2] = biological target: recombinant human P450 2D6 (Homo sapiens, UniProt P10635); test: Recombinant human P450 isoform inhibition, 2D6; format: in vitro ADME
Sequence of recombinant human P450 2D6 (P10635 whole entry, canonical isoform): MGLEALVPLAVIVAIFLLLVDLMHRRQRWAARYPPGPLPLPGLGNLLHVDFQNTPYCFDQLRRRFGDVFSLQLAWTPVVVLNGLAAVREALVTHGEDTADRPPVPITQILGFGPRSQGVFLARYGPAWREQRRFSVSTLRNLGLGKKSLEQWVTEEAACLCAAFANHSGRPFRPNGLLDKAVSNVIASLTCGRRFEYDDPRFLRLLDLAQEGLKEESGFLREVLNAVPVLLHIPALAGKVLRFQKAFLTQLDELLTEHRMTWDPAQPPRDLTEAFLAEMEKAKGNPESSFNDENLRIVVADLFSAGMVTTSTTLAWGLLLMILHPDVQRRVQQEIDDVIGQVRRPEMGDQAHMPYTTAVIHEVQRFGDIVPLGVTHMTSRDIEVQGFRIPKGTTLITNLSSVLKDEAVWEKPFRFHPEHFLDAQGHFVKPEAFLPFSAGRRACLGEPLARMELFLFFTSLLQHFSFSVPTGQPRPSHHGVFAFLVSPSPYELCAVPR
Method: In a study using recombinant human P450 isoforms, the compound was only a weak inhibitor (IC50>10 μM) of all isoforms tested, 3A4, 2D6, 2C9, 2C19, and 1A2.

Male Sprague Dawley rats = test: Spinal nerve ligation (SNL) model of neuropathic pain, mechanical allodynia (Von Frey); format: in vivo; details: rat, at 2 h
Method: Spinal Nerve Ligation (SNL) Model of Neuropathic Pain
Male Sprague Dawley rats weighing 145 to 165 g (approximately 6 weeks of age) were obtained from Harlan (Indianapolis, Ind.). Food and water were provided ad lib and a 12 h light and 12 h dark cycle were maintained. Animals were group housed under specific pathogen-free, barrier maintained environment and were allowed to acclimate for no less than 1 week. Following surgery, animals were housed individually in solid bottom polycarbonate cages with automatic watering devices at 22° C. and a relative humidity of 60%. All animals received Harland Tekland Diet # 8604.
Anesthesia was induced using isoflurane (IsoVet™) inhalant in an induction chamber (3-5% in 2 L/min of O2). Once recumbent, the animal was removed and placed into a nose cone which delivered inhalant isoflurane (0.5-2.5% at 2 L/min Of O2). The dorsal pelvic area was shaved and scrubbed aseptically with chlorhexidine scrub, 70% alcohol, and a 5% chlorhexidine solution. The animal was held in ventral recumbency on a heating pad, and the surgical procedure described by Kim and Chung (1992) was performed. The left paraspinal muscles were separated from the spinous processes at the level of Lumbar 4 to Sacral 2 (L4-S2). Once the musculature was retracted, the L6 transverse process was removed using a small rongeur. L4 and L5 spinal nerves could then be visualized. L5 was then isolated and ligated using 6-0 silk suture material. Warm saline and a dose of long-acting antibiotic was administered immediately post-op before recovery form anesthesia.
At least one week following surgery, animals were individually placed in a Lucite testing chamber with a wire mesh bottom. Mechanical (tactile) allodynia was measured by recording the pressure at which the affected paw was withdrawn from graded stimuli (Von Frey hairs ranging from 4.0 to 148.1 mN equivalent to 0.25 to 15 g of pressure) applied to the plantar surface of the paw (between the footpads) according to the procedure of Chaplan et. al (1994) in order to calculate paw withdrawal threshold (PWT). Normal rats can withstand at least 15 g of pressure without responding. SNL rats can respond to as little as 0.25 g of pressure. Rats were included in this study only if their PWT was below 4.0 g.
Animals were used for compound testing between 2 weeks and 8 weeks post-operatively. Animals were always pre-tested for baseline withdrawal threshold on the day of testing. Following a 16 h fast, PWT was evaluated at 30 min, 1 h, 2 h, and 4 h post-dosing. Dose-response studies were conducted at the time of peak effect. Studies were conducted in a blinded manner.
Data were normalized and results were presented as % MPE (maximum possible effect) of the drug.

[3] = Metabolic stability in human liver microsomes; format: in vitro ADME
Method: as §1
In a follow up study in human liver microsomes, the percent of compound remaining was determined at several incubation times (30, 60 and 90 min). The in vitro half life of the compound was determined to be >100 minutes.

[4] = Metabolic stability in dog liver microsomes; format: in vitro ADME; details: 10 min incubation
Method: as §1

male Sprague-Dawley rats = test: Rat CFA radiant heat model of inflammatory pain; format: in vivo; details: dosed orally 24 h after intraplantar CFA
Method: Rat CFA Radiant Heat Model of Inflammatory Pain
Intraplantar injection of Complete Freund's Adjuvant (CFA) in rodents results in a strong, long-lasting inflammatory reaction, characterized by a chronic and pronounced hyperalgesia to both thermal and mechanical stimuli. These effects peak between 24-72 h following injection, and can last for several days to a few weeks. To assess the ability of compounds to reverse thermal hyperalgesia, male Sprague-Dawley rats (200-350 g) were given an intraplantar injection of CFA (1:1 CFA:saline, 100 μL) into their left hindpaw. Following a 24-h incubation period, response latencies on the Radiant Heat Paw Stimulator (RH) were obtained and compared to baseline (pre-CFA) latencies. The RH device automatically registered lifting of the paw from the surface of the glass. […] Following the post CFA latency assessment, rats were dosed orally (2.5 mL/kg) with test compound or vehicle (hydroxypropylmethylcellulose, HPMC). Percent reversal of hyperalgesia was calculated for each animal as (Treatment Response−postCFA Response)/(preCFA Response−postCFA Response)×100. Therefore, a return to normal pre-CFA thresholds was defined as 100% efficacy, whereas no change from post-CFA thresholds was 0% efficacy. Average % reversal of hyperalgesia was then calculated for each treatment group (n=6-8 rats/group). […]

Human mu opioid = biological target: T1, Human mu opioid (Homo sapiens, UniProt P35372); test: [35S]GTPγS binding assay in human mu opioid-CHO cell membranes; format: biochemical
T1 construct: host or cells: CHO cell membranes
T1 sequence (P35372 whole entry): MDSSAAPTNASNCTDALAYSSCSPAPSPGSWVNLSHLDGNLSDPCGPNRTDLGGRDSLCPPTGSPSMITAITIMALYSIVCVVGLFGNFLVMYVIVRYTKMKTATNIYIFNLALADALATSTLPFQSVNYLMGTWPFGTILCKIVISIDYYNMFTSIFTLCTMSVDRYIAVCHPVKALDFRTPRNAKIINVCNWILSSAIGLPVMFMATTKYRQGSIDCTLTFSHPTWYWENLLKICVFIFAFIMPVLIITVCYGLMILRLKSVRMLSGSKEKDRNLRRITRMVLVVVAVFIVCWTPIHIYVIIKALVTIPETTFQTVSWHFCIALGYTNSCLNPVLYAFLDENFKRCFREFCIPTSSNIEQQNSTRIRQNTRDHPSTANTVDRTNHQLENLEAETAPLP
Method: [^35S]GTPγS Binding Assay in Human mu opioid-CHO Cell Membranes
Human mu-CHO cell membranes were purchased from Receptor Biology, Inc. (Baltimore, Md.). About 10 mg/ml of membrane protein was suspended in 10 mM TRIS-HCl, pH 7.2, 2 mM EDTA, 10% sucrose.
Membranes were maintained at 4-8° C. 1 ml of membranes was added into 15 ml cold assay buffer, containing 50 mM HEPES, pH 7.6, 5 mM MgCl2, 100 mM NaCl, 1 mM DTT and 1 mM EDTA. The membrane suspension was homogenized with a Polytron 2 times and centrifuged at 3000 rpm for 10 min. The supernatant was then centrifuged at 18,000 rpm for 20 min. The pellet was resuspended in 10 ml assay buffer with a Polytron.
The pellet membranes (20 μg/ml) were preincubated with Scintillation Proximity Assay beads (SPA, 10 mg/ml) at 25° C. for 45 min in the assay buffer. The SPA beads (5 mg/ml) coupled with membranes (10 μg/ml) were then incubated with 0.5 nM [^35S]GTPγS in the same HEPES buffer containing 50 μM GDP in total volume of 200 μl. A range of concentrations of receptor agonists were used to stimulate [^35S]GTPγS binding. The basal binding was tested in the absence of agonist and non-specific binding was tested in the presence of 10 μM unlabeled GTPγS. Radioactivity was quantified on a Packard TopCount.
Data were Calculated as Follows: % of basal=(stimulated−non-specific)*100/(basal−non specific) % Inhibition=(% Basal of 1 μM DAMGO−% Basal of compound)*100/(% Basal of 1 μM DAMGO−100)
EC50 values were calculated using the Prism program.

In the case of `CN(C)C[C@H]1CCCC[C@]1(O)c1cccc(C(N)=O)c1` (single isomer, unassigned) [Cpd 3], the “% remaining after 10 min” value [1] is reported as 88.2%, the IC50 [2] is reported as greater than 10000 nM and the ED50 (Male Sprague Dawley rats) is reported as 17 mg/kg. For the same compound, the “% remaining after 10 min” value ([3]; 10 min incubation) was 101.4%, the “Metabolism in human liver microsomes (result in words)” value ([3]; 10 min incubation) was “no metabolism of the compound was observed” and the half-life ([3]; incubation times 30, 60 and 90 min, read-out: In vitro half life) was greater than 1.67 h. The “% remaining after 10 min” value [4] was 92.6%, the “Antihyperalgesic effect (reversal of thermal hyperalgesia)” value (male Sprague-Dawley rats) was “antihyperalgesic” and the EC50 (Human mu opioid) was 167 nM. The “Mu opioid GTPγS relative efficacy” value (Human mu opioid) was 75%.
